These results are taken from ChEMBL document CHEMBL5126623, “Dual Targeting of Steroid Sulfatase and 17β-Hydroxysteroid Dehydrogenase Type 1 by a Novel Drug-Prodrug Approach: A Potential Therapeutic Option for the Treatment of Endometriosis” (J Med Chem, 2022).

Data set [1] deals with T1, 17-beta-hydroxysteroid dehydrogenase type 1 (Homo sapiens, UniProt P14061).
T1 sequence (P14061 whole entry): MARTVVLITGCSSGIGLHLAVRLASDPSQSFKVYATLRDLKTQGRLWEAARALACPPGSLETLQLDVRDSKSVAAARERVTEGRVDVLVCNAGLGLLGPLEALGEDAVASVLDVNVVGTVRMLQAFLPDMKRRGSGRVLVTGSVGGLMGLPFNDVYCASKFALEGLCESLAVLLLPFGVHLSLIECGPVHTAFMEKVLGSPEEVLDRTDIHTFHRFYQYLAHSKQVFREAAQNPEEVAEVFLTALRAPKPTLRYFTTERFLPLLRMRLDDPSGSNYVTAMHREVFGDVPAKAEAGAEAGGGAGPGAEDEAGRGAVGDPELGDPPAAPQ
Nature of the data set: Inhibition of 17beta-HSD1 in human T47D cells using [3H]E1S as substrate measured after 24 hrs by HPLC analysis. Format: cell-based.

The target in data set [2] is T2, 17-beta-hydroxysteroid dehydrogenase type 1 (Homo sapiens) (UniProt P14061).
T2 sequence (whole entry): T1 sequence (P14061 whole entry)
Briefly: Inhibition of human 17beta-HSD1 at 50 nM using [3H]-E1 as substrate measured after 13.5 hrs in presence of NADH by LC-MS/MS analysis.

For the next data set, the species on record is Homo sapiens. Briefly: Selectivity ratio of IC50 for human placental microsomal fraction 17beta-HSD2 to IC50 for human placental cytosolic fraction 17beta-HSD1.
Data set [3] has as its target T2, 17-beta-hydroxysteroid dehydrogenase type 1 (Homo sapiens). The note with it: dose 50.0 nM, time 24.0 hrs.
Data set [4] can be described thus: Cytotoxicity against human HEK293 cells assessed as cell growth inhibition at 20 uM measured at 48 hrs bt MTT assay relative to control. Type of data set: toxicity, cell-based. (In general: Formazan colour is commonly taken as a measure of viable cells.)
Data set [5] is described as follows: Metabolic stability in mouse liver S9 fraction assessed as intrinsic clearance at 1 uM in presence of NADPH measured upto 60 min by LC-MS/MS analysis. Format: ADME, subcellular. The note with it: s9, 1 h.
Data set [6] can be described thus: Metabolic stability in human liver S9 fraction assessed as intrinsic clearance at 1 uM in presence of NADPH measured upto 60 min by LC-MS/MS analysis. Format: ADME, subcellular. The note with it: s9, 1 h.
Data set [7] can be described thus: Metabolic stability in mouse liver S9 fraction assessed as half life at 1 uM in presence of NADPH measured upto 60 min by LC-MS/MS analysis. Format: ADME, subcellular.
The nature of data set [8]: Metabolic stability in human liver S9 fraction assessed as half life at 1 uM in presence of NADPH measured upto 60 min by LC-MS/MS analysis. Format: ADME, subcellular.
Data set [9] concerns the target T3, Steryl-sulfatase (Homo sapiens, UniProt P08842).
T3 sequence (P08842 whole entry): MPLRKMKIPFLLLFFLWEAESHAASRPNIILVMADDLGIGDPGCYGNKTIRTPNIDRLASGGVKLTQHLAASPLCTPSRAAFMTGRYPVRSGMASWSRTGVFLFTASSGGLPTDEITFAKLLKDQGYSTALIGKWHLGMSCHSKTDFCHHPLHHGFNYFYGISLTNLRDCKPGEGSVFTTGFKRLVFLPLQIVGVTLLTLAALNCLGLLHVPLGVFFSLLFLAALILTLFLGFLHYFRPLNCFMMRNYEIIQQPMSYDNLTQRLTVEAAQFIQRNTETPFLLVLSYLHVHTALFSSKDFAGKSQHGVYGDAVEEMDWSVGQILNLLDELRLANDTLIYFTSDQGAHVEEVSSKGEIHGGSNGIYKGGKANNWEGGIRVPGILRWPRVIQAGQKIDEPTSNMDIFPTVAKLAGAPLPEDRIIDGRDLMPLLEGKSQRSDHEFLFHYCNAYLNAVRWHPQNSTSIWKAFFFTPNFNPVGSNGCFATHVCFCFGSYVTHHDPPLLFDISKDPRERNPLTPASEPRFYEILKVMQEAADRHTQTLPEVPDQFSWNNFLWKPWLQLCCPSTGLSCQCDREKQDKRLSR
Nature of the data set: Inhibition of STS in human T47D cells using [3H]E1S as substrate measured after 24 hrs by HPLC analysis. Format: cell-based.

Data set [10] concerns the target T3, Steryl-sulfatase. Nature of the data set: Irreversible inhibition of STS in human T47D cells using [3H]E1S as substrate measured after 24 hrs by HPLC analysis. Format: cell-based.
Data set [11] in a line: Stability in human T47D cells cultured in DMEM medium measured after 24 hrs by LC-MS/MS analysis. Type of data set: ADME, cell-based. Conditions: read-out: Stability.
Data set [12] has as its target T2, 17-beta-hydroxysteroid dehydrogenase type 1 (Homo sapiens). The note with it: dose 50.0 nM, time 6.5 hrs.
Description: Inhibition of human placental cytosolic fraction 17beta-HSD1 at 50 nM using [3H]-E1 as substrate in presence of NADH measured after 6.5 hrs by LC-MS/MS method
The nature of data set [13]: Stability of compound in phosphate buffer measured after 24 hrs by LC-MS/MS analysis. Type of data set: physicochemical. Conditions: read-out: Stability.
Data set [14] deals with T1, 17-beta-hydroxysteroid dehydrogenase type 1. Nature of the data set: Inhibition of human placental cytosolic fraction 17beta-HSD1 using [3H]-E1 as substrate in presence of NADH measured after 10 mins by HPLC method. Format: subcellular, Placenta, Cytosol.
The target in data set [15] is T4, 17-beta-hydroxysteroid dehydrogenase type 2 (Homo sapiens, UniProt P37059).
T4 sequence (P37059 whole entry): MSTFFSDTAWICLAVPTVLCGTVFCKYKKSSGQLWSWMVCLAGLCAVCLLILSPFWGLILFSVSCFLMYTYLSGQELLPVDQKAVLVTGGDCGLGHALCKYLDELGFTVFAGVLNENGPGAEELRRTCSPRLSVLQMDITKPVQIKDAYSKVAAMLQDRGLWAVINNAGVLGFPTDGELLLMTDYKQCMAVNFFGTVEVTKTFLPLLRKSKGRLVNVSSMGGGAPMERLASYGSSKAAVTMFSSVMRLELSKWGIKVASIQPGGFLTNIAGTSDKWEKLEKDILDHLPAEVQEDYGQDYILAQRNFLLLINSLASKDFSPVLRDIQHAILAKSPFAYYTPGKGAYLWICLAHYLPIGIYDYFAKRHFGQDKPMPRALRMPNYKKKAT
Briefly: Inhibition of human placental microsomal fraction 17beta-HS2 using [3H]-E2 as substrate in presence of NAD+ measured after 10 mins by HPLC method. Format: subcellular, Placenta, Microsome.

For orientation: IC50 means the concentration needed to halve the response being measured. The inhibition is the drop in the measured response relative to a control, in per cent. On to `Cc1ccccc1N(C)C(=O)c1ccc(-c2ccc(O)cc2)o1`, for which half-maximal inhibition in [1] (IC50) required 21 nM. The inhibition in data set [2] was 50%; in data set [3], less than 60%. For the same compound, the Ratio IC50 in the data set listed under Homo sapiens was determined as 51.

As for `Cc1ccccc1N(C)C(=O)c1ccc(-c2ccc(O)c(Cl)c2)o1`, the IC50 in data set [1] came out at 52 nM. In addition, in data set [4], the inhibition at 48 h, 20 µM was 55%. Further, in the data set listed under Homo sapiens, the Ratio IC50 was determined as 74.

Usually half-life stands for the time in which the quantity being followed falls by half. In the case of `Cc1ccc(F)cc1N(C)C(=O)c1ccc(-c2ccc(OS(N)(=O)=O)cc2)o1`, the intrinsic clearance in [5] was 180 µL/min/mg; in data set [6], 21 µL/min/mg. Moreover, the half-life at 1 µM in data set [7] was 3.9 min; in data set [8], 34 min. On Steryl-sulfatase [9], this compound registered an IC50 of 40 nM.

Take `Cc1ccccc1N(C)C(=O)c1csc(-c2ccc(OS(N)(=O)=O)cc2)n1`: the IC50 against Steryl-sulfatase [10] came to 60 nM; against Steryl-sulfatase [9], 63 nM. Besides, the figures for the intrinsic clearance in data set [5] and in [6] were 46 µL/min/mg and 14 µL/min/mg, respectively. Also, the half-life at 1 µM turned out to be 15 min in [7] and 50 min in data set [8].

Take `Cc1ccccc1N(C)C(=O)c1ccc(-c2ccc(OS(N)(=O)=O)c(F)c2)o1`: the half-maximal inhibitory concentration (IC50) against Steryl-sulfatase [10] and at Steryl-sulfatase [9] was 17 nM throughout. Besides, the intrinsic clearance in [5] was determined as 140 µL/min/mg; in data set [6] it was 16 µL/min/mg. The results for the half-life at 1 µM in data set [7] and in [8] were 6.1 min and 43 min, respectively.

As to `Cc1ccccc1N(C)C(=O)c1coc(-c2ccc(OS(N)(=O)=O)cc2)n1`, the IC50 on Steryl-sulfatase [10] was 68 nM; against Steryl-sulfatase [9], 60 nM. The intrinsic clearance is 15 µL/min/mg in [5] and 3.9 µL/min/mg in data set [6]. In addition, the half-life at 1 µM was found to be 47 min in data set [7] and 180 min in [8].

As to `Cc1ccccc1N(C)C(=O)c1ccc(-c2ccc(OS(N)(=O)=O)cc2)o1`, the IC50 on Steryl-sulfatase [10] was 31 nM; on Steryl-sulfatase [9], 28 nM. The intrinsic clearance in data set [5] was determined as 31 µL/min/mg; in [6], 15 µL/min/mg. For the same compound, the remaining at 24 h in data set [11] amounted to 94%; in data set [13] it was 40%. Besides, the half-life at 1 µM was 25 min in data set [7] and 47 min in data set [8]. For the same compound, the inhibition in [12] came out at 50%. The inhibition at 48 h, 20 µM in data set [4] came to 11.7%.

Take `Cc1cc(F)ccc1N(C)C(=O)c1ccc(-c2ccc(OS(N)(=O)=O)cc2)o1`: the IC50 against Steryl-sulfatase [10] came to 15 nM; against Steryl-sulfatase [9], 14 nM. Further, the intrinsic clearance in data set [5] came to 150 µL/min/mg; in data set [6], 16 µL/min/mg. The half-life at 1 µM in data set [7] worked out at 4.6 min; in data set [8], 44 min.

Regarding `Cc1ccccc1N(C)C(=O)c1ccc(-c2ccc(OS(N)(=O)=O)cc2F)o1`, the IC50 at Steryl-sulfatase [10] was 16 nM; against Steryl-sulfatase [9], 12 nM. Further, the intrinsic clearance in [5] came out at 38 µL/min/mg; in [6], 14 µL/min/mg. The half-life at 1 µM in [7] worked out at 23 min; in data set [8] it was 51 min.

`Cc1ccccc1N(C)C(=O)c1ccc(-c2ccc(OS(N)(=O)=O)cc2Cl)o1`: the IC50 amounted to 29 nM against Steryl-sulfatase [10] and 27 nM against Steryl-sulfatase [9]. Further, the intrinsic clearance came out at 39 µL/min/mg in data set [5] and 18 µL/min/mg in data set [6]. The results for the half-life at 1 µM in [7] and in data set [8] were 20 min and 39 min, respectively. Besides, the inhibition at 48 h, 20 µM in data set [4] stood at 11.7%.

Turning to `NS(=O)(=O)Oc1ccc2c3c(c(=O)oc2c1)CCCCC3` [IROSUSTAT], in [7], the half-life at 1 µM was 3 min.

`Cc1ccccc1N(C)C(=O)c1ccc(-c2ccc(OS(N)(=O)=O)c(Cl)c2)o1`: the IC50 at Steryl-sulfatase [10] came to 27 nM; against Steryl-sulfatase [9] it was 25 nM. Also, the intrinsic clearance worked out at 24 µL/min/mg in data set [5] and 15 µL/min/mg in data set [6]. In addition, the half-life at 1 µM came to 31 min in data set [7] and 48 min in data set [8]. Also, the inhibition at 48 h, 20 µM in data set [4] was determined as 55%.

For `O=c1ccc2ccc(O)cc2o1` [UMBELLIFERONE], the intrinsic clearance in data set [5] was 280 µL/min/mg; in data set [6] it was 140 µL/min/mg.

Regarding `Cc1ccccc1N(C)C(=O)c1csc(-c2ccc(O)cc2)n1`, the IC50 in data set [14] came to 34 nM; in data set [1], 12 nM; in data set [15], 3900 nM. Moreover, the Ratio IC50 in the data set filed under Homo sapiens is 115.

Take `Cc1c(F)cccc1N(C)C(=O)c1ccc(-c2ccc(OS(N)(=O)=O)cc2)o1`: the IC50 against Steryl-sulfatase [10] was 25 nM; against Steryl-sulfatase [9] it was 27 nM. Further, the results for the intrinsic clearance in data set [5] and in data set [6] were 150 µL/min/mg and 29 µL/min/mg, respectively. Further, the results for the half-life at 1 µM in data set [7] and in data set [8] were 4.8 min and 21 min, respectively.
